The values that follow come from patent publication US10160747B2, “Compounds and methods for kinase modulation, and indications therefor” (Plexxikon Inc., priority 2016, dated 2018).

Common to all, as to format: biochemical
The target in experiment [1] is T1, FLT3-D835Y (Homo sapiens, UniProt P36888, D835Y).
T1 construct: purchased Invitrogen PV3967
T1 sequence (P36888 27-993 D835Y): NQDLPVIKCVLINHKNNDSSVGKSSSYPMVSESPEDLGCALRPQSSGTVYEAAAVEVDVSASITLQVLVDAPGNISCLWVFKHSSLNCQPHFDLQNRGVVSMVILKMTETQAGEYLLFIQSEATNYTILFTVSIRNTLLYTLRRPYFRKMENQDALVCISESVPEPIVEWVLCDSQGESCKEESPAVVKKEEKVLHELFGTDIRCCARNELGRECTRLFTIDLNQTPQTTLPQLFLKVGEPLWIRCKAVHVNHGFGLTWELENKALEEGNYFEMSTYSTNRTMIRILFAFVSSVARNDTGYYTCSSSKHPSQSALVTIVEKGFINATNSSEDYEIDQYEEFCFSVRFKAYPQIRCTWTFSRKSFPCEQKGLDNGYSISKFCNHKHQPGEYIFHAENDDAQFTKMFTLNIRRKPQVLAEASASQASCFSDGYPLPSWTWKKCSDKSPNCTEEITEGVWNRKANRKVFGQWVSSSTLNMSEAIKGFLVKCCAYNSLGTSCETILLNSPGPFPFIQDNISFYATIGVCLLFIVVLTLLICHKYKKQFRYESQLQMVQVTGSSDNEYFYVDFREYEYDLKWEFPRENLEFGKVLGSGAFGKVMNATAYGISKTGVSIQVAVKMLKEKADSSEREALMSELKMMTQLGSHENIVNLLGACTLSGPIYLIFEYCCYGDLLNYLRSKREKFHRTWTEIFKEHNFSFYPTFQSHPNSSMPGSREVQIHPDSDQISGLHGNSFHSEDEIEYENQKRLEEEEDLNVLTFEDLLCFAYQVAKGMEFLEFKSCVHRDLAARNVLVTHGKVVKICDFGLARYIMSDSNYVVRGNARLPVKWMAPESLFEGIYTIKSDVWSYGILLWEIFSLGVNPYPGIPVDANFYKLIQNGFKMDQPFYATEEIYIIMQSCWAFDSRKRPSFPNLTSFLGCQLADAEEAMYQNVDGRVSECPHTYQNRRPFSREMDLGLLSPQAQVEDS
The experiment in a line: FLT3-D835Y recombinant enzyme kinase assay (AlphaScreen). Particulars: 8 pt, GMean. The method in brief:
(§1)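 Substrate 30 nM biotin-GG(EEEEY)10EE; ATP 10 μM (FLT3-ITD, FLT3-D835Y) or 100 μM (c-KIT). Detection: AlphaScreen PY20 kit, 10 μg/mL beads, RT 20 + 60 min. Readout 580 nm; IC50.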
A general note: Alpha assays give light when donor and acceptor beads are brought close together.

For experiment [2], the target named is T2, FLT3-ITD (Homo sapiens, UniProt P36888).
T2 sequence (P36888 1-993): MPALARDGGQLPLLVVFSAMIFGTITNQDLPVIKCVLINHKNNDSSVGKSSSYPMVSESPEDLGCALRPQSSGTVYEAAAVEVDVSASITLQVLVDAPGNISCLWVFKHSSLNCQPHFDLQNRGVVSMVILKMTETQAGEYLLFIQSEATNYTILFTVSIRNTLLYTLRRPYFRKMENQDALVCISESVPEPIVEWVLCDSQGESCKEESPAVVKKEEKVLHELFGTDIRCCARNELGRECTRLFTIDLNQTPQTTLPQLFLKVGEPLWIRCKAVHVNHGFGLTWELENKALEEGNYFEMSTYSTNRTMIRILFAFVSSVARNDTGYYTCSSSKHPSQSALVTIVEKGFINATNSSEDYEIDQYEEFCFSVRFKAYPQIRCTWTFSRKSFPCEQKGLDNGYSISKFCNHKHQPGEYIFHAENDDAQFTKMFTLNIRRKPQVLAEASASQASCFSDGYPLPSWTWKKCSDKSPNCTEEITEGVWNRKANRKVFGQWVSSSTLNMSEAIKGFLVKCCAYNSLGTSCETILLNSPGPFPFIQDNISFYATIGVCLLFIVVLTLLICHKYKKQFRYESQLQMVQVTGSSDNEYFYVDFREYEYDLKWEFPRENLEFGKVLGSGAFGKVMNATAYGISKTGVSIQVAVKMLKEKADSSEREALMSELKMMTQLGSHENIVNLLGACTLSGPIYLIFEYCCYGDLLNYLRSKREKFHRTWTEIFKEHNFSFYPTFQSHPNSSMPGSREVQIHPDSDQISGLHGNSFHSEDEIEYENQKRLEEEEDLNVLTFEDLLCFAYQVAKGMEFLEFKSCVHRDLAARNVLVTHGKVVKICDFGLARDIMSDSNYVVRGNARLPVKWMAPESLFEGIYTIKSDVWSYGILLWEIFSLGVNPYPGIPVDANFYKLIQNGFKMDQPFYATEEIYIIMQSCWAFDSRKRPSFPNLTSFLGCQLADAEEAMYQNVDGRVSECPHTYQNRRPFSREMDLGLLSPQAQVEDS
In words: FLT3-ITD recombinant enzyme kinase assay (AlphaScreen). Particulars: 8 pt; read-out: FLT3_ITD 8 pt: IC50. The method in brief: as §1

Experiment [3] has as its target T3, c-KIT (Homo sapiens, UniProt P10721).
T3 construct: purchased Millipore 14-559K
In words: c-KIT recombinant enzyme kinase assay (AlphaScreen). Particulars: 100 ATP, 8 pt. An outline of the steps:
as §1

Molecules are shown by their SMILES.

T3 sequence (P10721 26-976): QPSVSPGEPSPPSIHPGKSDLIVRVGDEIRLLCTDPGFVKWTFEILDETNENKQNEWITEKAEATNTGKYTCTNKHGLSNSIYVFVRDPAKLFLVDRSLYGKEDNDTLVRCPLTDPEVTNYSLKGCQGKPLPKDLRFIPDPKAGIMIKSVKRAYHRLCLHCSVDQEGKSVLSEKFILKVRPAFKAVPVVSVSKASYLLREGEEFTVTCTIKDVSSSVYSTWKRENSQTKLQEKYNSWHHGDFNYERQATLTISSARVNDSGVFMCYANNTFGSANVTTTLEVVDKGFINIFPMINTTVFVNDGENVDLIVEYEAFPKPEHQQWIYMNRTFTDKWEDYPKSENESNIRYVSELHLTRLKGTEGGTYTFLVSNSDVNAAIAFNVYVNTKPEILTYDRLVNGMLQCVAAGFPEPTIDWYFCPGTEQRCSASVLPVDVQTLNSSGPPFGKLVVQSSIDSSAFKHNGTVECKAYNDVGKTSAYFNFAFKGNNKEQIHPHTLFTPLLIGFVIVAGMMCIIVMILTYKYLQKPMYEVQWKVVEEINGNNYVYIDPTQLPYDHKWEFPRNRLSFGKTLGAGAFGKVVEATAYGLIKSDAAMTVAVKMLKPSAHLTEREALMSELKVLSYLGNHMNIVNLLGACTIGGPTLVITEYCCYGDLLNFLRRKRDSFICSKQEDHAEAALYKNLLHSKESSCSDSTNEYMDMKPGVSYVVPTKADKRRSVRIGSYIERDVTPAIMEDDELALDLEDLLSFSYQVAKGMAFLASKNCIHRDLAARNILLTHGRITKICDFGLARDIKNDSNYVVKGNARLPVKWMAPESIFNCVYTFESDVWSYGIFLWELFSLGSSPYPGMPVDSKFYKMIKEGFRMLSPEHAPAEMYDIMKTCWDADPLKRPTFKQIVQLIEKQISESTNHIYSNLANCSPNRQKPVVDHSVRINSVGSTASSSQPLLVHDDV

Broadly, the IC50 is the midpoint of a concentration-inhibition curve. On to `COc1ncc(NC(=O)Cc2cc(F)c(-c3cnc4[nH]cc(F)c4c3)cc2F)cc1C(F)(F)F` [Compound P-0051, 2-[2,5-difluoro-4-(3-fluoro-1H-pyrrolo[2,3-b]pyridin-5-yl)phenyl]-N-[6-methoxy-5-(trifluoromethyl)-3-pyridyl]acetamide], for which the IC50 in experiment [1], in experiment [2] and in experiment [3] was 0.0001 to 10 µM each time.

Regarding `O=C(Cc1ccc(-c2cnc3[nH]cc(F)c3c2)cc1F)Nc1ccnc(C(F)(F)F)c1` [Compound P-0029, 2-[2-fluoro-4-(3-fluoro-1H-pyrrolo[2,3-b]pyridin-5-yl)phenyl]-N-[2-(trifluoromethyl)-4-pyridyl]acetamide], the IC50 in experiment [1], in experiment [2] and in experiment [3] was 0.0001 to 10 µM throughout.

As to `O=C(Cc1cc(F)c(-c2cnc(Nc3cnn4ccccc34)nc2)cc1F)Nc1cncc(C(F)(F)F)c1` [Compound P-0075, 2-[2,5-difluoro-4-[2-(pyrazolo[1,5-a]pyridin-3-ylamino)pyrimidin-5-yl]phenyl]-N-[5-(trifluoromethyl)-3-pyridyl]acetamide], the IC50 in experiment [1] and in experiment [2] was 0.0001 to 10 µM each time.

On to `O=C(Cc1ccc(-c2cnc3[nH]nc(C4CC4)c3c2)cc1F)Nc1cncc(C(F)(F)F)c1` [Compound P-0072, 2-[4-(3-cyclopropyl-1H-pyrazolo[3,4-b]pyridin-5-yl)-2-fluoro-phenyl]-N-[5-(trifluoromethyl)-3-pyridyl]acetamide], for which the IC50 in experiment [1], in experiment [2] and in experiment [3] was 0.0001 to 10 µM in each case.

Take `COc1ncc(NC(=O)Cc2ccc(-c3cnc4[nH]cc(C(=O)C5CC5)c4c3)cc2F)cc1C(F)(F)F` [Compound P-0036, 2-[4-[3-(cyclopropanecarbonyl)-1H-pyrrolo[2,3-b]pyridin-5-yl]-2-fluoro-phenyl]-N-[6-methoxy-5-(trifluoromethyl)-3-pyridyl]acetamide]: the IC50 in experiment [1], in experiment [2] and in experiment [3] was 0.0001 to 10 µM each time.

`COc1cncc(NC(=O)Cc2ccc(-c3cnc(Nc4cnn(C)c4)nc3)cc2F)c1` [Compound P-0086, 2-[2-fluoro-4-[2-[(1-methylpyrazol-4-yl)amino]pyrimidin-5-yl]phenyl]-N-(5-methoxy-3-pyridyl)acetamide]: the half-inhibitory concentration (IC50) in experiment [1], in experiment [2] and in experiment [3] was 0.0001 to 10 µM in each case.

In the case of `Cc1cc(CC(=O)Nc2cccc(C(F)(F)F)c2)ccc1-c1cnc2[nH]c(-c3ccccc3)cc2c1` [Compound P-0002, 2-[3-methyl-4-(2-phenyl-1H-pyrrolo[2,3-b]pyridin-5-yl)phenyl]-N-[3-(trifluoromethyl)phenyl]acetamide], the IC50 in experiment [1] and in experiment [2] was 0.0001 to 10 µM in each case.

`COc1ncc(NC(=O)Cc2ccc(-c3cnc(Nc4cnn5ccccc45)nc3)cc2F)cc1C(F)(F)F` [Compound P-0037, 2-[2-fluoro-4-[2-(pyrazolo[1,5-a]pyridin-3-ylamino)pyrimidin-5-yl]phenyl]-N-[6-methoxy-5-(trifluoromethyl)-3-pyridyl]acetamide]: the IC50 in experiment [1], in experiment [2] and in experiment [3] was 0.0001 to 10 µM throughout.

With `Cn1cc(Nc2ncc(-c3ccc(CC(=O)NCc4ccccn4)c(F)c3)cn2)cn1` [Compound P-0088, 2-[2-fluoro-4-[2-[(1-methylpyrazol-4-yl)amino]pyrimidin-5-yl]phenyl]-N-(2-pyridylmethyl)acetamide], the IC50 in experiment [2] and in experiment [3] was 0.0001 to 10 µM in each case.

For `COc1ncc(NC(=O)Cc2ccc(-c3cnc4[nH]c(Cl)cc4c3)c(F)c2)cc1C(F)(F)F` [Compound P-0046, 2-[4-(2-chloro-1H-pyrrolo[2,3-b]pyridin-5-yl)-3-fluoro-phenyl]-N-[6-methoxy-5-(trifluoromethyl)-3-pyridyl]acetamide], in experiment [2], the half-inhibitory concentration (IC50) was 0.0001 to 10 µM.

As to `O=C(Cc1ccc(-c2cnc(Nc3cnn4ccccc34)nc2)cc1)Nc1cncc(C(F)(F)F)c1` [Compound P-0074, 2-[4-[2-(pyrazolo[1,5-a]pyridin-3-ylamino)pyrimidin-5-yl]phenyl]-N-[5-(trifluoromethyl)-3-pyridyl]acetamide], the IC50 in experiment [1] and in experiment [2] was 0.0001 to 10 µM each time.

For `COc1ncc(NC(=O)Cc2ccc(-c3cnc4[nH]c(Cl)cc4c3)cc2F)cc1C(F)(F)F` [Compound P-0038, 2-[4-(2-chloro-1H-pyrrolo[2,3-b]pyridin-5-yl)-2-fluoro-phenyl]-N-[6-methoxy-5-(trifluoromethyl)-3-pyridyl]acetamide], the half-inhibitory concentration (IC50) in experiment [2] was in the range of 0.0001 to 10 µM.

Turning to `Cn1cnc(Nc2ncc(-c3ccc(CC(=O)Nc4cc(C(C)(F)F)ccn4)cc3F)cn2)c1` [Compound P-0171, N-[4-(1,1-difluoroethyl)-2-pyridyl]-2-[3-fluoro-4-[2-[(1-methylimidazol-4-yl)amino]pyrimidin-5-yl]phenyl]acetamide], the IC50 in experiment [2] and in experiment [3] was 0.0001 to 10 µM each time.

As to `Cn1cc(Nc2ncc(-c3ccc(CC(=O)NCc4ccc(C(F)(F)F)cn4)cc3)cn2)cn1` [Compound P-0162, 2-[4-[2-[(1-methylpyrazol-4-yl)amino]pyrimidin-5-yl]phenyl]-N-[[5-(trifluoromethyl)-2-pyridyl]methyl]acetamide], the IC50 in experiment [2] and in experiment [3] was 0.0001 to 10 µM in each case.

Turning to `COc1ncc(NC(=O)Cc2cc(F)c(-c3cnc4[nH]c(Cl)cc4c3)cc2F)cc1C(F)(F)F` [Compound P-0045, 2-[4-(2-chloro-1H-pyrrolo[2,3-b]pyridin-5-yl)-2,5-difluoro-phenyl]-N-[6-methoxy-5-(trifluoromethyl)-3-pyridyl]acetamide], in experiment [2], the IC50 is 0.0001 to 10 µM.

With `O=C(Cc1ccc(-c2cnc3c(c2)C2(CC2)C(=O)N3)cc1F)Nc1cncc(C(F)(F)F)c1` [Compound P-0064, 2-(2-fluoro-4-(2′-oxo-1′,2′-dihydrospiro[cyclopropane-1,3′-pyrrolo[2,3-b]pyridin]-5′-yl)phenyl)-N-(5-(trifluoromethyl)pyridin-3-yl)acetamide], the IC50 in experiment [2] and in experiment [3] was 0.0001 to 10 µM throughout.

`O=C(Cc1ccc(-c2cnc3[nH]c(Cl)cc3c2)cc1F)Nc1ccnc(C(F)(F)F)c1` [Compound P-0030, 2-[4-(2-chloro-1H-pyrrolo[2,3-b]pyridin-5-yl)-2-fluoro-phenyl]-N-[2-(trifluoromethyl)-4-pyridyl]acetamide]: the IC50 in experiment [2] and in experiment [3] was 0.0001 to 10 µM in each case.

With `COc1ncc(NC(=O)Cc2ccc(-c3cnc4[nH]cc(F)c4c3)c(F)c2)cc1C(F)(F)F` [Compound P-0048, 2-[3-fluoro-4-(3-fluoro-1H-pyrrolo[2,3-b]pyridin-5-yl)phenyl]-N-[6-methoxy-5-(trifluoromethyl)-3-pyridyl]acetamide], the IC50 in experiment [1] and in experiment [3] was 0.0001 to 10 µM in each case.
